Marks after values point to notes of the source that are not given here.
Tests used:
Type in all cases: in vivo, mouse (DBA/1)
[1] = tested on: Mice in which rheumatoid arthritis was induced; assay: Assessment of arthritis severity (score of edema and flare at fore and hind paws); conditions: 0-4 per leg, maximum 16; after three times of administration; in comparison with negative control group
Procedure: (§1) Chicken type II collagen (Sigma-Aldrich) was mixed with 0.05 M acetic acid at 4° C. to the concentration of 2 mg/ml. The resulting mixture and Freund's complete adjuvant (CFA) (Sigma-Aldrich) were mixed at an equal amount ratio, and then the resulting mixture was homogenized at 30000 rpm for three minutes by using a homogenizer (Polytron PT3100D) to prepare an antigen material for administration. For a first immunization, the antigen material for administration was intradermally injected to a mouse tail (DBA/1 mouse, six weeks old) (Day 1). Three weeks later, the CFA was replaced by Freund's incomplete adjuvant (IFA) (Sigma-Aldrich), and boosting was performed by the same method.
(§2) Mice were divided into five groups, and saline solution, hASCs, and CTLA4Ig-hASC were intravenously injected to mouse tails on Day 63, Day 70, Day 77, and Day 84 after immunization as shown in Table 1 below.
In the mice of Example 1-2, from Day 62 after the immunization, the severity of arthritis at the fore paw and the hind paw was assessed three times per week in a score from 0 point (No arthritis) to 4 point (Severe arthritis) according to the degree of edema and flare. The assessment was performed at each leg with the maximum possible score of 16. The clinical score was measured at each mouse by Day 90 after the immunization. […]

[2] = tested on: Mice in which rheumatoid arthritis was induced; assay: ELISA of anti-mouse type II collagen antibody, C-telopeptide I and C-telopeptide II in serum; conditions: comparison among negative control and treatment groups
Procedure: as §1, with “method. […]” for “method.”
In the serum obtained in Example 1-2, anti-mouse type II collagen antibody, C-terminal telopeptide of Type I collagen (C-telopeptide I) that was a Type I collagen discharged during osteoclastic bone resorption, and C-terminal telopeptide of Type II collagen (C-telopeptide II) that was a chondrolysis product were detected by ELISA.
Specifically, anti-mouse type II collagen antibody, C-telopeptide I, and C-telopeptide II in the serum were measured by using an anti-mouse type II antibody collagen ELISA kit (Astarte Biologics), RatLap™ EIA kit (Immunodiagnostic Systems Ltd.), and a type II collagen ELISA kit (CUSABIO), respectively. […]

cytokine [3] = assay: Multiplex measurement of cytokine concentration in serum
Procedure: as §2
(§3) To verify the variation of cytokine expression according to transplantation of hASC or CTLA4Ig-hASC, the serum, knee extract, splenocytes, and lymph node cells obtained in Example 1-2 were prepared.
(§4) The cytokine concentration in serum, knee extract, and the obtained supernatant of the culture solutions of splenocytes and lymph node cells was measured by using a multiplex cytokine/chemokine kit (Milliplex MAP mouse cytokine/chemokine kit, Millipore) by following the protocol provided by the manufacturer. As cytokines, tumor necrosis factor (TNF)-αinterferon (IFN)-α, interleukin (IL)-1α, IL-1β, IL-2, IL-4, IL-6, IL-10, IL-12p70, IL-15, IL-17, keratinocyte-derived chemokine (KC), monocyte chemotactic protein (MCP)-1, macrophage inflammatory protein (MIP)-2, and regulated-upon-activation normal T-cell expressed and secreted (RANTES) were measured.
(§5) The cytokine concentration (pg/ml) in the splenocyte culture medium that was cultured in the presence of Type II collagen, ConA, an LPS is shown in Tables 4 to 6, respectively. The cytokine concentration (pg/ml) in the lymph node cell culture solution that was cultured in the presence of ConA is shown in Table 7.
(§6) The data obtained from each group was compared by performing a Kruskal Wallis test (†: P<0.05) or a (Mann-Whitney U test) (*: significant difference in comparison with the negative control group (p<0.05)).

cytokine [4] = assay: Multiplex measurement of cytokine concentration in knee extract
Procedure: as §2, §3, §4, §5, §6

cytokine [5] = assay: Cytokine concentration in splenocyte culture medium, cultured in the presence of Type II collagen; conditions: Type II collagen 100 μg/ml, 48 hours
Procedure: as §2, §3
(§7) Splenocytes of each group were separated. 2.5×10^5/well of splenocytes cultured in 96-well plate (Nunc) in a final volume of 200 μl including or not including 100 μg/ml of Type II collagen (Sigma Aldrich), 2.5 μg/ml of concanavalin A (ConA) (Sigma Aldrich), and 2.5 μg/ml of lipopolysaccharide (LPS) (Sigma Aldrich). The cells were incubated in humidified air at 37° C. for 48 hours. Then, the supernatant of the splenocyte culture medium was obtained and stored at −70° C. By the same method, lymph node cells were cultured in a culture medium including ConA, and the supernatant of lymph node cell culture solution was obtained.
as §4
as §5, with “7. […]” for “7.”

cytokine [6] = assay: Cytokine concentration in splenocyte culture medium, cultured in the presence of ConA; conditions: ConA 2.5 μg/ml, 48 hours
Procedure: as §2, §3, §7, §4, §5, §6

cytokine [7] = assay: Cytokine concentration in splenocyte culture medium, cultured in the presence of LPS; conditions: LPS 2.5 μg/ml, 48 hours
Procedure: as §2, §7, §4, §6

cytokine [8] = assay: Cytokine concentration in lymph node cell culture solution, cultured in the presence of ConA
Procedure: as §2, §3
Splenocytes of each group were separated. 2.5×10^5/well of splenocytes cultured in 96-well plate (Nunc) in a final volume of 200 μl including or not including 100 μg/ml of Type II collagen (Sigma Aldrich), 2.5 μg/ml of concanavalin A (ConA) (Sigma Aldrich), and 2.5 μg/ml of lipopolysaccharide (LPS) (Sigma Aldrich). […]
as §4, with “measured. […]” for “measured.”

[9] = tested on: Mice in which rheumatoid arthritis was induced; assay: Histopathological assessment of knee cartilage (H&E, Safranin O); conditions: H&E and Safranin O, Week 13 after first immunization
Description: as §2
(§8) Knee cartilage tissues were stained to investigate the degree of cartilage injury and bone injury by rheumatoid arthritis, and micro-computed tomography images were obtained to verify morphologic defects in paw joints.
In Week 13 after the first immunization, knee cartilage tissues were obtained from the animals of Example 1-2. The obtained knee cartilage tissues were fixed by using 10% (v/v) neutral buffered formalin (Sigma-Aldrich), and the resulting solution was stirred by using a rapid decalcifier (Thermo Scientific) for 24 hours to decalcify. When an osseous tissue was easily cut by a razor, it was assumed that the tissue was completely decalcified. The decalcified osseous tissue was dehydrate and embedded in paraffin. To assess histopathological injury, the paraffin-embedded tissue was cut into 4 μm-thick slices, and the paraffin was removed from the slices by using xylene. Then, the slices were rehydrated by using a graded alcohol, and stained by using hematoxylin and eosin (H&E) (DAKO) and Safranin O (IHC World). […]

[10] = tested on: Mice in which rheumatoid arthritis was induced; assay: Micro-CT verification of morphologic defects in paw joints; conditions: score 0-4
Description: as §2, §8
To verify morphological defects in paw joints, the mice paw obtained in Example 1-2 were fixed by using 4%(v/v) formalin (Sigma-Aldrich), and images of the mouse paws were obtained by using Inveon Preclinical CT (Siemens Healthcare) that is a micro-CT scanner at 40 μm of thickness, 0.6 second of exposure time, 70 keV of […] energy, and 400 μA of current. The images were reconstructed into three-dimensional images by using IRW software (Siemens Healthcare).
The data were compared among the groups by performing an ANOVA and then Tukey's multiple comparison tests. A significant difference in comparison with the negative control group was marked as “*” (p<0.05).

## CN(Cc1cnc2nc(N)nc(N)c2n1)c1ccc(C(=O)N[C@@H](CCC(=O)O)C(=O)O)cc1 [MTX, methotrexate]
[1]
  arthritis severity score: a pattern that was similar to that of the negative control group
[2]
  concentration of C-telopeptide I in serum: not significantly different
Cytokine [3]
  IL-6 concentration: 161.10 ± 59.69 pg/mL
  MIP-2 concentration: 17.36 ± 8.79* pg/ml
  TNF-α concentration: 5.22 ± 1.37 pg/mL
Cytokine [4]
  IL-1β concentration: 4.54 ± 2.88 pg/mL
  IL-6 concentration: 19.37 ± 11.87 pg/mL
  KC concentration: 305.82 ± 147.86 pg/mL
  MIP-2 concentration: 50.36 ± 19.78 pg/mL
  RANTES concentration: 0.20 ± 0.07* pg/ml
Cytokine [5]
  IL-10 concentration: 3.75 ± 0.89 pg/mL
  IL-17 concentration: 4.73 ± 2.01 pg/mL
  MCP-1 concentration: 591.43 ± 222.2 pg/mL
Cytokine [6]
  IL-1α concentration: 21.02 ± 3.77 pg/mL
  IL-6 concentration: 279.78 ± 71.12 pg/mL
  IL-10 concentration: 80.76 ± 23.19 pg/mL
  IL-17 concentration: 1345.14 ± 590.38 pg/mL
  KC concentration: 10.78 ± 1.86 pg/mL
  MCP-1 concentration: 549.99 ± 220.33 pg/mL
Cytokine [7]
  IL-1α concentration: 112.01 ± 27.82 pg/mL
  IL-4 concentration: 0.37 ± 0.24 pg/mL
  IL-6 concentration: 4676.79 ± 1097.10 pg/mL
  KC concentration: 199.78 ± 50.25 pg/mL
  MCP-1 concentration: 250.79 ± 87.01 pg/mL
  MIP-2 concentration: 2022.27 ± 409.37 pg/mL
  RANTES concentration: 128.44 ± 24.46 pg/mL
  TNF-α concentration: 90.65 ± 20.41 pg/mL
Cytokine [8]
  IL-10 concentration: 23.11 ± 4.08 pg/mL
[9]
  destruction of the joint cartilage: severely damaged
[10]
  mice showing a severe morphological defect in the paw joints: four mice out of the seven mice

From patent US20170224772A1, “COMPOSITION AND KIT FOR PREVENTION OR TREATMENT OF ARTHRITIS, AND METHOD USING THE SAME” (Samsung Electronics Co., Ltd., priority 2014, published 2017)
